# Laboratory results as given in patent US10604794B2, “Method to measure the shortest telomeres” (The Board of Regents of The University of Texas System, priority 2017, dated 2020).
# Experiments:
# H2087 cells [1] = assay: Interphase Q-FISH telomere length in H2087 cells under long-term imetelstat treatment; format: cell-based; details: 1 μM imetelstat, 18 weeks treatment compared to 0 weeks and 5 weeks after drug removal
# Experimental: (§1) FIGS. 2A-2C. Measuring TL in long-term telomerase inhibition with imetelstat (1 μM) treatment and after a removal of drug in H2087 cells. (2A) Isolated DNA from H2087 cells with 1 μM imetelstat treatment for 0, 10 and 18 weeks, and post released from 18 weeks for 1, 2, 3, 4, and 5 weeks was digested with the same REs for TeSLA (BfaI/CviAII/MseI/NdeI) and then separated with 0.7% agarose gel for TRF analysis. (2B) Interphase Q-FISH; cells from H2087 with 0, and 18 weeks 1 μM imetelstat treatment, and 5 weeks after drug removal were used to measure TL by Q-FISH. The results were quantified using TFL-Telo software (n: numbers of nuclei were quantified for each time point as indicated above). (2C) Results of TeSLA using DNA as indicated. Four TeSLA reactions (30 pg of each reaction) were performed for each DNA sample.
# (§2) To further examine the utility of TeSLA in studying telomere dynamics, the inventors evaluated TL dynamics in a telomerase positive non-small cell lung cancer (NSCLC) cell line (H2087). These cells were subjected to long-term telomerase inhibition treatment and then released to observe the dynamic of telomere re-elongation. The results were compared using TeSLA, TRF and telomere Q-FISH. […] In contrast, TeSLA is able to detect TL in both imetelstat treated cells and cells post released from drug in a much more quantitative manner (FIG. 2C). […]
# telomerase = details: binds to the active site of telomerase RNA; cited from earlier work
# NSCLC cell lines = details: long-term treatment, multiple NSCLC cell lines; cited from earlier work
# H2087 cells [2] = assay: TRF analysis of telomere length in H2087 cells under long-term imetelstat treatment; format: cell-based; details: 1 μM imetelstat 3 times per week, 10 and 18 weeks treatment
# Experimental: as §1, §2
substance,measurement,setting,value
imetelstat,telomere signals by Q-FISH,H2087 cells [1],only a few telomere signals with relatively low intensity were detected
same,telomerase activity,telomerase,robustly inhibits telomerase activity
same,average TL change,NSCLC cell lines,shorten average TL
same,average TL change by TRF analysis,H2087 cells [2],average TL shortening
